PMC7249006, “Discovery of Novel Pyridazine-Based Cyclooxygenase-2 Inhibitors with a Promising Gastric Safety Profile” (Molecules, 2020)
“Also recorded” adds a separate entry of the source.

Legend:
gastric mucosa = test: Lipid peroxidation studies (MDA content of gastric mucosa, TBA method); conditions: gastric mucosa after the ulcerogenic activity test, 10 mg/kg orally
Protocol: A decrease in the MDA content is a measure to assess the non-ulcerogenic effect of a compound.
The obtained mixture was extracted with a 5-mL mixture (15:1 v/v) of n-butanol and pyridine and centrifuged at 4000 rpm for 10 min. […] A standard linear curve (absorbance vs. concentration in nM) was prepared using MDA tetrabutylammonium salt. The lipid peroxidation was calculated from the standard curve. The results are expressed as nmol MDA 100 mg^−1 tissues.

[1] = target: T1, (Ovis aries, UniProt P05979); test: In vitro COX-1 inhibition assay (Cayman kit 560131, ELISA); type: biochemical, human; conditions: N = 3, Mean ± SD
T1 construct: purchased Cayman Chemicals 560131
T1 sequence (P05979 25-600): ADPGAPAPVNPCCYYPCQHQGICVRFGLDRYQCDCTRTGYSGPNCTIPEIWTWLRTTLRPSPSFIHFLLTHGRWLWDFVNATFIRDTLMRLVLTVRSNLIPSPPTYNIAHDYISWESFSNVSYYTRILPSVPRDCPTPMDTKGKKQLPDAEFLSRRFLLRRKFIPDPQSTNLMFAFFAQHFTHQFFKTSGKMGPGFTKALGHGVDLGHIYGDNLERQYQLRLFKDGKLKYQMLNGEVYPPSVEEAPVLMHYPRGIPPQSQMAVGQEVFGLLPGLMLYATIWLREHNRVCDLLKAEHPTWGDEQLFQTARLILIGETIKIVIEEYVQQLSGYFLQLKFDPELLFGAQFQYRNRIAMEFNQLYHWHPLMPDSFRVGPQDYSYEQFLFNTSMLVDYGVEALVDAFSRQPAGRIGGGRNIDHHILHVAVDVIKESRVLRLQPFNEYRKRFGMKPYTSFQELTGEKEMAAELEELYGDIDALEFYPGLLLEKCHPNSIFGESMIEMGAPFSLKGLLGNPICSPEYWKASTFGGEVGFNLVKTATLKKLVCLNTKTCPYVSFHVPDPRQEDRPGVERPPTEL
Protocol: (§1) The supplier’s instructions were followed to prepare the reagents as well as to perform the experiment. Briefly, samples (20 μL), the COX-1 and COX-2 enzyme (10 μL), and heme (10 μL) were mixed with the buffer solution (160 μL), which was supplied with the kits. […] A saturated solution of stannous chloride (30 μL) was added after 2 min to halt the COX reaction. The resultant mixture was incubated at ambient temperature for 5 min. The Prostaglandin-2α (PGF2α) developed after the COX reaction was measured through ELISA. […] The plate was washed to get rid of the unbound components. […] The IC50 values of COX-1 and COX-2 were determined by the regression analysis.

human COX-2 = target: T2, human COX-2 (Homo sapiens, UniProt P35354); test: In vitro COX-2 inhibition assay (Cayman kit 560131, ELISA); type: biochemical; conditions: for SI (Selectivity index): IC50 for COX-1/IC50 for COX-2; for IC50: N = 3, Mean ± SD; for %SI: selectivity index normalized to celecoxib = 100%
T2 construct: purchased Cayman Chemicals 560131
T2 sequence (P35354 18-604): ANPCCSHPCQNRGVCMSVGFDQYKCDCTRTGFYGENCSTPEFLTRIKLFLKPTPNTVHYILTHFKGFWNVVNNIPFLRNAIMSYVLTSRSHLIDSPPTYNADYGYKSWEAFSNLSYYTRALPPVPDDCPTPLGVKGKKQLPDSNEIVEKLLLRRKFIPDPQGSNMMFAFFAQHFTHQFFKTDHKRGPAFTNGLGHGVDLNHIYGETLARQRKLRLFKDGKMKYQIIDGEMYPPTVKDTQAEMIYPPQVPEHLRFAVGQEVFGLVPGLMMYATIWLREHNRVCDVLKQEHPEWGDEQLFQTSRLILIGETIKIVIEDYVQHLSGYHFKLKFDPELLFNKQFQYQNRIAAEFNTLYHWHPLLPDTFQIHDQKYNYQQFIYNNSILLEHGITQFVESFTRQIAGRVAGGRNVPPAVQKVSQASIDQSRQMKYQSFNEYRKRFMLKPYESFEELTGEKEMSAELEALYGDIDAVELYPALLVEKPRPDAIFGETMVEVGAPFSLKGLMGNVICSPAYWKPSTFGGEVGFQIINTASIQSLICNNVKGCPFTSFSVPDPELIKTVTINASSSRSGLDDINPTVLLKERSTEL
Protocol: as §1

gastric ulcers in rats = test: Gastric ulcerogenic activity; conditions: 10 mg/kg orally; for ulcerogenic effect (in words): rats; for Score: No of Gastric Ulcers / Score: Severity Lesions: rats fasted 18 h, sacrificed after 4 h, Mean ± SE
Protocol: A total of eight groups of rats were utilized, wherein each group comprised of six rats.
The eight groups of rats were fasted for 18 h, wherein each group consisted of 6 rats. […] Saline solution (1 mL) was given to the control group. The animals were sacrificed after 4 h to isolate their stomachs. A longitudinal cut was made along the greater curvature, and the presence of ulcers was evaluated. The counting of ulcers was marked as 0 (no ulcer) to 5 (≥ 3 ulcers) [30].

| SMILES | melting point [°C] | IC50 [1] [nM] | SI (Selectivity index) (human COX-2) | IC50 (human COX-2) [nM] | %SI (human COX-2) [%] | MDA Content in nmol (100 mg Tissue) (gastric mucosa) | ulcerogenic effect (in words) (gastric ulcers in rats) | Score: No of Gastric Ulcers (gastric ulcers in rats) | Score: Severity Lesions (gastric ulcers in rats) |
| --- | --- | --- | --- | --- | --- | --- | --- | --- | --- |
| Cc1ccc(-c2cc(C(F)(F)F)nn2-c2ccc(S(N)(=O)=O)cc2)cc1 [Celecoxib, celecoxib, reference compound] | – | – | – | – | – | 6.11 ± 0.50 nmol (100 mg Tissue) | – | – | – |
| CC1SC(NN=Cc2ccc(-n3nc(-c4ccccc4)ccc3=O)cc2)=NC1=O (stereo not drawn) [Compound 6b, 5-Methyl-2-(2-(4-(6-oxo-3-phenylpyridazin-1(6H)-yl)benzylidene)hydrazineyl)thiazol-4(5H)-one] | 285 to 286 | 280 ± 0.5 | 12.30 | 22.75 ± 0.1 | 68.40 | – | – | – | – |
| O=c1ccc(-c2ccccc2)nn1-c1ccc(C=NNc2nc(-c3ccccc3)cs2)cc1 [Compound 9a, 6-Phenyl-2-(4-((2-(4-phenylthiazol-2-yl)hydrazinylidene)methyl)phenyl)pyridazin-3(2H)-one] | 280 to 281 | 330 ± 0.28 | – | 15.5 ± 0.55 | – | 3.05 ± 0.12 nmol (100 mg Tissue) | No ulcerogenic effects; also recorded: did not produce any ulcerogenic impact; also recorded: devoid of any ulcerogenic effect | 0 | 0 |
| COC(=O)C=C1SC(=NN=Cc2ccc(-n3nc(-c4ccccc4)ccc3=O)cc2)NC1=O [Compound 10, Methyl2-(4-oxo-2-((4-(6-oxo-3-phenylpyridazin-1(6H)-yl)benzylidene)hydrazineylidene) -thiazolidin-5-ylidene)acetate] | – | 285 ± 0.15 | 12.89 | 22.1 ± 0.55 | 71.69 | – | – | – | – |
| O=C1N=C(NN=Cc2ccc(-n3nc(-c4ccccc4)ccc3=O)cc2)SC1=C1C(=O)Nc2ccccc21 [Compound 12, 2-(2-(4-(6-oxo-3-phenylpyridazin-1(6H)-yl)benzylidene)hydrazineyl)-5-(2-oxoindolin-3-ylidene) thiazol-4(5H)-one] | – | 295 ± 0.28 | – | 17.1 ± 0.19 | – | 2.95 ± 0.44 nmol (100 mg Tissue) | No ulcerogenic effects; also recorded: did not produce any ulcerogenic impact; also recorded: devoid of any ulcerogenic effect | 0 | 0 |
| O=C1N=C(N/N=C/c2ccc(-n3nc(-c4ccccc4)ccc3=O)cc2)S/C1=C\c1ccc(Cl)cc1 [Compound 16a, 5-(4-Chlorobenzylidene)-2-(2-(4-(6-oxo-3-phenylpyridazin-1(6H)-yl)benzylidene)-hydra-zinyl)thiazol-4(5H)-one] | 297 to 298 | 275 ± 0.1 | 12.40 | 22.2 ± 0.44 | 68.96 | – | – | – | – |
| COc1ccc(/C=C2\SC(N/N=C/c3ccc(-n4nc(-c5ccccc5)ccc4=O)cc3)=NC2=O)cc1 [Compound 16b, 5-(4-Methoxybenzylidene)-2-(2-(4-(6-oxo-3-phenylpyridazin-1(6H)-yl)benzylidene)hydra-zineyl)thiazol-4(5H)-one] | > 300 | 315 ± 0.33 | – | 16.9 ± 0.16 | – | 3.45 ± 0.28 nmol (100 mg Tissue) | insignificant ulcerogenic effects | 0.12 ± 0.30 | 0.18 ± 0.22 |
| O=C1CSC(=NN=Cc2ccc(-n3nc(-c4ccccc4)ccc3=O)cc2)N1c1ccccc1 [Compound 17, 2-((4-(6-oxo-3-phenylpyridazin-1(6H)-yl)benzylidene)hydrazineylidene)-3-phenyl thiazolidin-4-one] | – | 285 ± 0.16 | – | 17.7 ± 0.18 | – | 4.11 ± 0.18 nmol (100 mg Tissue) | insignificant ulcerogenic effects | 0.42 ± 0.10 | 0.20 ± 0.50 |
| COc1ccc2c(c1)c(CC(=O)O)c(C)n2C(=O)c1ccc(Cl)cc1 [Indomethacin, indomethacin, reference compound] | – | – | – | – | – | 8.90 ± 0.18 nmol (100 mg Tissue) | – | – | – |

Continued, in another order:

| melting point [°C] | IC50 [1] [nM] | SI (Selectivity index) (human COX-2) | IC50 (human COX-2) [nM] | %SI (human COX-2) [%] | SMILES | MDA Content in nmol (100 mg Tissue) (gastric mucosa) | ulcerogenic effect (in words) (gastric ulcers in rats) | Score: No of Gastric Ulcers (gastric ulcers in rats) | Score: Severity Lesions (gastric ulcers in rats) |
| --- | --- | --- | --- | --- | --- | --- | --- | --- | --- |
| 235 to 236 | 235 ± 0.11 | 8.97 | 26.2 ± 0.5 | 49.88 | NN=Cc1ccc(-n2nc(-c3ccccc3)ccc2=O)cc1 [Compound 4a, 2-(4-(Hydrazineylidenemethyl)phenyl)-6-phenylpyridazin-3(2H)-one] | – | – | – | – |
| 250 to 252 | 260 ± 0.22 | 10.35 | 25.1 ± 0.15 | 57.56 | O=C1CSC(NN=Cc2ccc(-n3nc(-c4ccccc4)ccc3=O)cc2)=N1 [Compound 6a, 2-(2-(4-(6-Oxo-3-phenylpyridazin-1(6H)-yl)benzylidene)hydrazineyl)thiazol-4(5H)-one] | – | – | – | – |
| 245 to 246 | 250 ± 0.12 | 10.33 | 24.18 ± 0.14 | 57.45 | CCOC(=O)c1sc(N/N=C/c2ccc(-n3nc(-c4ccccc4)ccc3=O)cc2)nc1C [Compound 8, Ethyl 4-methyl-2-(2-(4-(6-oxo-3-phenylpyridazin-1(6H)-yl)benzylidene)hydrazineyl) thiazole-5-carboxylate] | – | – | – | – |
| 261 to 262 | 275 ± 0.42 | – | 17.5 ± 0.6 | – | O=c1ccc(-c2ccccc2)nn1-c1ccc(C=NNc2nc(-c3ccc(Br)cc3)cs2)cc1 [Compound 9b, 2-(4-((2-(4-(4-Bromophenyl)thiazol-2-yl)hydrazineylidene)methyl)phenyl)-6-phenylpyridazin-3(2H)-one] | 3.89 ± 0.50 nmol (100 mg Tissue) | insignificant ulcerogenic effects | 0.33 ± 0.38 | 0.26 ± 0.16 |
| – | 270 ± 0.24 | 10.75 | 25.11 ± 0.11 | 59.78 | CN(C)C=C1SC(NN=Cc2ccc(-n3nc(-c4ccccc4)ccc3=O)cc2)=NC1=O [Compound 11, 5-((dimethylamino)methylene)-2-(2-(4-(6-oxo-3-phenylpyridazin-1(6H)-yl)benzylidene) hydrazineyl) thiazol-4(5H)-one] | – | – | – | – |
| – | 255 ± 0.2 | 11.01 | 23.1 ± 0.5 | 61.23 | COC(=O)C=C1SC(=NN=Cc2ccc(-n3nc(-c4ccccc4)ccc3=O)cc2)N(c2ccccc2)C1=O [Compound 18, Methyl2-(4-oxo-2-((4-(6-oxo-3-phenylpyridazin-1(6H)-yl)benzylidene)hydrazinylidene) -3-phenylthiazolidin-5-ylidene)acetate] | – | – | – | – |
